Laboratory results taken from PubChem BioAssay (NCI).
Several values for one entry are separate records, joined by “and”; a condition that tells them apart may be missing. Equal values may be shown once.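 Grown in 96-well plates, cells were treated for 48 hours with each compound at five concentrations. Insufficient inhibition: endpoint recorded as highest concentration tested. GI50 marks 50% less growth. At the TGI there is no net growth.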

Key:
Assay in all cases: NCI-60 cell line screen, 48 h
[1] = system: CAKI-1 renal
[2] = system: COLO 205 colon
[3] = system: HCC-2998 colon
[4] = system: IGROV1 ovarian
[5] = system: KM12 colon
[6] = system: NCI-H226 lung
[7] = system: SF-539 CNS
[8] = system: SK-MEL-28 melanoma
[9] = system: UACC-257 melanoma
[10] = system: UO-31 renal

| SMILES | GI50 [1] | TGI [1] | GI50 [2] | TGI [2] | GI50 [3] | TGI [3] | GI50 [4] | TGI [4] | GI50 [5] | TGI [5] | GI50 [6] | TGI [6] | GI50 [7] | TGI [7] | GI50 [8] | TGI [8] | GI50 [9] [µM] | TGI [9] | GI50 [10] | TGI [10] |
| --- | --- | --- | --- | --- | --- | --- | --- | --- | --- | --- | --- | --- | --- | --- | --- | --- | --- | --- | --- | --- |
| ClCc1cccc(Cn2cnc3nc(Cl)nc(Cl)c32)c1 | 1.89 µM | 3.4 µM | 1.69 µM | 4.22 µM | 1.52 µM | 2.9 µM | 4.45 µM | 8.92 µM | 16.7 µM | 35.4 µM | 1.04 µM | 3.54 µM | 0.189 µM | 0.496 µM | 0.503 µM | 1.13 µM | 2.48 | 7.35 µM | 4.43 µM | 9.1 µM |
| O=C(NCO)NCOCn1c(=O)n(CO)c(=O)n(CO)c1=O |  | > 100 µM |  | > 71.8 µM |  | > 100 µM |  | > 100 µM |  | > 62.8 µM |  | > 100 µM |  | > 100 µM |  | 45.1 µM |  | 99.4 µM |  | > 100 µM |
| O=c1c2ccccc2c(=O)c2c1[nH]c1c(-c3ccccc3)c(-c3ccccc3)c(=O)c12 | 1.93 µM | 4.99 µM | 3.94 µM | 13.1 µM | 2.09 µM | 5.05 µM | 3.39 µM | 20.4 µM | 2.3 µM | 6.34 µM | 3.56 µM | 44.5 µM | 1.85 µM | 3.74 µM | 3.51 µM | 14.3 µM | 2.46 | 8.22 µM | 1.75 µM | 5.55 µM |
| COc1ccc2cc(C(C)C(=O)N3CCOC3=O)ccc2c1 (stereo unspecified) |  | > 100 µM |  | > 100 µM |  | > 100 µM |  | > 100 µM |  | > 100 µM |  | > 100 µM |  | > 100 µM |  | > 100 µM |  | > 100 µM |  | > 100 µM |
| O=C1CC2CCCC23CC2(CCN13)OCCO2 (stereo unspecified) |  | > 100 µM |  | > 100 µM |  | > 100 µM |  | > 100 µM |  | > 100 µM |  | > 100 µM |  | > 100 µM |  | > 100 µM |  | > 100 µM |  | > 100 µM |
| CN(C)C(=O)[C@H](O)[C@H](Cc1ccccc1)NC(=O)c1cc2cc(Cl)ccc2[nH]1 | 19.3 µM | > 77.5 µM | 16.1 µM | 30.3 µM | 16.3 µM | 38.1 µM | 22.4 µM | 69.1 µM | 27.2 µM | > 87.7 µM | 23 µM | > 88.2 µM | 20.2 µM | 43.3 µM | 19 µM | 54.5 µM | 16.2 | 43.5 µM | 14.8 µM | 39.8 µM |
| C[C@]12CC[C@@H]3c4cc(OCC(F)(F)F)c(O)cc4/C(=N/O)C[C@H]3[C@@H]1CC[C@@H]2O |  | > 66.6 µM |  | 35.3 µM |  | 11.4 µM |  | 20 µM |  | 11.2 µM |  | > 40.8 µM |  | 0.0725 µM | 0.0637 µM | 25.9 µM |  | 45.5 µM | 0.149 µM | 20.8 µM |
| O=c1cc(NC2CCN(CCCc3ccccc3)CC2)c2cc(Cl)ccc2o1 | 12.4 µM | 25.6 µM | 9.98 µM | 23.2 µM | 13 µM | 27.3 µM | 11.3 µM | 26.6 µM | 12.5 µM | 25 µM | 15.6 µM | 39.6 µM | 12.3 µM | 25.3 µM | 11.1 µM | 23.9 µM | 15.4 | 30 µM | 4.39 µM | 17.8 µM |
| COc1cccc(C#Cc2ccccc2C#CCCCCO)c1 | 6.49 µM | 19.9 µM | 17.9 µM | 36.2 µM | 5.95 µM | 19.4 µM | 10.3 µM | 22.6 µM | 12.4 µM | 41.8 µM | 15.7 µM | 40.5 µM | 11.5 µM | 24.6 µM | 15.3 µM | 30.3 µM | 12.5 | 25.4 µM | 8.79 µM | 22.3 µM |
| CC1=C(O)C(=O)C=C2C1=CC=C1[C@@]2(C)CC[C@@]2(C)[C@@H]3C[C@](C)(C(=O)O)CC[C@]3(C)CC[C@]12C |  | 0.0375 µM |  | 0.041 µM |  | 0.155 µM |  | 0.0428 µM |  | 0.412 µM |  | 0.366 µM |  | 0.331 µM |  | 0.0345 µM |  | 0.1 µM |  | 0.151 µM |
| CCc1nc(C(N)=O)c(Nc2ccc(N3CCC(N4CCN(C)CC4)CC3)c(OC)c2)nc1NC1CCOCC1 | 1.24 µM and 0.236 µM and 1.21 µM | 12.9 µM and > 10 µM and 13.4 µM | 1.55 µM and 0.281 µM and 1.57 µM | 9.65 µM and > 1.98 µM and 14.2 µM | 8.08 µM and 1.4 µM and 8.55 µM | 22.2 µM and > 3.14 µM and 23.5 µM | 0.876 µM and 0.279 µM and 0.79 µM | 8.09 µM and > 10 µM and 8.12 µM | 0.0933 µM and 0.0338 µM and 0.0649 µM | 12.8 µM and > 10 µM and 12 µM | 5.45 µM and > 10 µM and 5.78 µM | 28.8 µM and > 10 µM and 30 µM | 5.46 µM and 1.05 µM and 7.87 µM | 20.3 µM and > 2.27 µM and 22.1 µM | 5.04 µM and 0.641 µM and 3.51 µM | 21.2 µM and > 2.91 µM and 19.1 µM |  | 24.5 µM and > 10 µM and 24.3 µM | 1.01 µM and 0.282 µM and 1.23 µM | 8.61 µM and > 10 µM and 8.63 µM |
| O=C(O)[C@H](NS(=O)(=O)c1ccc([N+](=O)[O-])cc1)c1ccccc1 |  | > 100 µM |  | > 100 µM |  | > 100 µM |  | > 100 µM |  | > 100 µM |  | > 100 µM |  | > 100 µM |  | > 100 µM |  | > 100 µM |  | > 100 µM |
| CCCSc1nc(COC(=O)NC)c(COC(=O)NC)n1C |  | > 100 µM |  | > 100 µM |  | > 100 µM |  | > 100 µM |  | > 100 µM |  | > 100 µM |  | > 100 µM |  | > 100 µM |  | > 100 µM |  | > 100 µM |
| CCOC(=O)c1ccc(C)c(N=NN(C)C)c1 |  | > 100 µM |  | > 100 µM |  | > 100 µM |  | > 100 µM |  | > 100 µM |  | > 100 µM |  | > 100 µM |  | > 100 µM |  | > 100 µM |  | > 100 µM |
| COc1cccc2c(=O)c3c(sc12)c(N1CCNCC1)nc1ccccc13 | 1.64 µM | 3.01 µM | 2.07 µM | 4.72 µM | 1.7 µM | 3.26 µM | 1.41 µM | 2.88 µM | 1.79 µM | 3.41 µM | 1.58 µM | 3.18 µM | 1.75 µM | 3.21 µM | 1.86 µM | 3.4 µM | 2.09 | 4.45 µM | 1.07 µM | 2.32 µM |
| O=C1CCC(O)=C1N=Nc1ccccc1 |  | > 100 µM |  | > 100 µM |  | > 100 µM |  | > 100 µM |  | > 100 µM |  | > 100 µM |  | > 100 µM |  | > 100 µM |  | > 100 µM |  | > 100 µM |
| CC(C)(C)c1cc(C(O)(C(F)(F)F)C(F)(F)F)c2c(c1)C(C(F)(F)F)(C(F)(F)F)OC(C(C)(C)C)N2 (stereo unspecified) |  | 8.45 µM |  | 13.5 µM |  | 15.7 µM |  | 18 µM |  | 14 µM |  | 10.2 µM |  | 6.68 µM |  | 18.8 µM |  | 9.48 µM |  | 19.3 µM |
| COc1cc2[nH]c(C(=O)c3cc(OC)c(OC)c(OC)c3)c(N)c2cc1C#CC1CC1 | 2.54 µM | > 100 µM | 2.4 µM | 8.34 µM | 20.1 µM | > 100 µM | 6.01 µM | > 100 µM | 2.51 µM | > 100 µM | 22.4 µM | > 100 µM | 0.815 µM | 4.77 µM | 7.52 µM | > 100 µM | > 100 | > 100 µM | 2.6 µM | > 100 µM |
| O=S(=O)(Nc1cc(Sc2cccc3cccnc23)c(O)c2ccccc12)c1ccccc1 | 1.97 µM | 10.1 µM | 1.71 µM | 3.7 µM | 4.77 µM | 19.1 µM | 1.01 µM | 6 µM | 2.03 µM | 16.5 µM | 2.45 µM | 25.4 µM | 0.957 µM | 5.13 µM | 0.801 µM | 5.57 µM | 1.87 | 5.01 µM | 0.734 µM | 4.76 µM |
